Reference: patent US12084436B2, “Heterocyclic compound” (Takeda Pharmaceutical Company Limited, priority 2019, dated 2024)

Each molecule was assayed against T1, HDAC6 enzyme (Homo sapiens, UniProt Q9UBN7) (assay: HDAC6 enzyme inhibitory assay (HDAC-Glo I/II Assay kit, luminescence)). Conditions: 10 μM test compound; wells without enzyme = 100% inhibition; read-out: HDAC6 inhibitory rate (%) (10 μM).
T1 construct: prepared by transducing full length HDAC6 gene into Sf-9 insect cells; GST; purchased SignalChem; host or cells: Sf-9 insect cells
T1 sequence (Q9UBN7 1-1215): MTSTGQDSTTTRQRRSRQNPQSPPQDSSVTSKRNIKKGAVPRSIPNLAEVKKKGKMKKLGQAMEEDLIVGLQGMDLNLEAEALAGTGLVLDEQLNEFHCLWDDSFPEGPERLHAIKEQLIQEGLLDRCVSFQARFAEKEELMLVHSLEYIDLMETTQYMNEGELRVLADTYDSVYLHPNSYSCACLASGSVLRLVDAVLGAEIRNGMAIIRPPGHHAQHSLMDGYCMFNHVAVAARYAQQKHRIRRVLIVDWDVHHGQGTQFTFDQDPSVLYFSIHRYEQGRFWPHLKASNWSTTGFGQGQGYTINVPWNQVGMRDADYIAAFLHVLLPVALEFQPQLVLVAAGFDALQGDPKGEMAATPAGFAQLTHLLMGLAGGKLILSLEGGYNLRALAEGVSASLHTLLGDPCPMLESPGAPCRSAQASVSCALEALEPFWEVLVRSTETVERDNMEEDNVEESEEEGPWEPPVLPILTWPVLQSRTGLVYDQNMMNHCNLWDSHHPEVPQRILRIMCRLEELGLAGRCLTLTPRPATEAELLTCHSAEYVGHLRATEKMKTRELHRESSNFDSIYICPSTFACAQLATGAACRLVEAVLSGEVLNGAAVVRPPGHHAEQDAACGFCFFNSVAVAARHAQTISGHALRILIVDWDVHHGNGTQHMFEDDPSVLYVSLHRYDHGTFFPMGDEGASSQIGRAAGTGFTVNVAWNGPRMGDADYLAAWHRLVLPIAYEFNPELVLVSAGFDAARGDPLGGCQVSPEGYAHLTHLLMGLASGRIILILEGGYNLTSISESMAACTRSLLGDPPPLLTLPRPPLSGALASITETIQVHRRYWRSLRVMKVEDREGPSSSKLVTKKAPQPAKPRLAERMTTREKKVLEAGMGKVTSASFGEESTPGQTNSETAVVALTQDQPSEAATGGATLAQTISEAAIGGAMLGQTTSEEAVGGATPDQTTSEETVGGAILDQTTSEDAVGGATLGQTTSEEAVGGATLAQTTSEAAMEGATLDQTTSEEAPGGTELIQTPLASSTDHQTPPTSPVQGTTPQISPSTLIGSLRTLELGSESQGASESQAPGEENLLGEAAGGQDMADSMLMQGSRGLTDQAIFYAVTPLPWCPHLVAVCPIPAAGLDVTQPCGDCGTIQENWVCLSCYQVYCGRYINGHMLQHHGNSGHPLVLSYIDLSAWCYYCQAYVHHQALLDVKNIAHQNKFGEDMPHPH
Format: biochemical
Procedure, shortened: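 Full-length human HDAC6, GST-purified from Sf-9 cells, was preincubated with compound for 60 min at room temperature in Tris-HCl pH 7.5 buffer with glutathione and Tween-20. Substrate-developer was then added, and luminescence was read after 20 min at room temperature. Inhibition was expressed relative to no-enzyme wells, taken as 100% inhibition.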

inhibition at 10 µM	SMILES
101%	CN(Cc1ccccc1C(F)F)N1Cc2ccc(-c3nnc(C(F)F)o3)cc2C1=O [Example 65c, 6-[5-(difluoromethyl)-1,3,4-oxadiazol-2-yl]-2-[{[2-(difluoromethyl)phenyl]methyl} (methyl)amino]-2,3-dihydro-1H-isoindol-1-one]
98%	N#Cc1ccc(Cn2ccnc2-c2cc(F)cc(-c3nnc(C(F)F)o3)c2)cn1 [Example 66a, 5-[(2-{3-[5-(difluoromethyl)-1,3,4-oxadiazol-2-yl]-5-fluorophenyl]-1H-imidazol-1-yl)methyl]pyridine-2-carbonitrile]
94%	CN(C1CC1)N1Cc2ccc(-c3nnc(C(F)F)o3)cc2C1=O [Example 66c, 2-[cyclopropyl(methyl)amino]-6-[5-(difluoromethyl)-1,3,4-oxadiazol-2-yl]-2,3-dihydro-1H-isoindol-1-one]
99%	Fc1cc(-c2nnc(C(F)F)o2)cc(-c2nccn2Cc2cccc(C(F)(F)F)c2)c1 [Example 67a]
99%	Fc1cc(-c2nnc(C(F)F)o2)cc(-c2nccn2Cc2ccc(F)c(Cl)c2)c1 [Example 68a, 2-(3-{1-[(3-chloro-4-fluorophenyl)methyl]-1H-imidazol-2-yl]-5-fluorophenyl)-5-(difluoromethyl)-1,3,4-oxadiazole]
99%	CN(C(=O)OC(C)(C)C)N1Cc2ncc(-c3nnc(C(F)F)o3)cc2C1=O [Example 68c, tert-butyl {3-[5-(difluoromethyl)-1,3,4-oxadiazol-2-yl]-5-oxo-5,7-dihydro-6H-pyrrolo[3,4-b]pyridin-6-yl}methylcarbamate]
100%	CN(Cc1ccc(F)cc1)N1Cc2ncc(-c3nnc(C(F)F)o3)cc2C1=O [Example 69c, 3-[5-(difluoromethyl)-1,3,4-oxadiazol-2-yl]-6-{[(4-fluorophenyl)methyl](methyl)amino}-6,7-dihydro-5H-pyrrolo[3,4-b]pyridin-5-one]
98%	FC(F)c1nnc(-c2cccc(-c3nccn3Cc3ccccc3)c2)o1 [Example 70a, 2-[3-(1-benzyl-1H-imidazol-2-yl)phenyl]-5-(difluoromethyl)-1,3,4-oxadiazole]
100%	CN(Cc1cncc(Cl)c1)N1Cc2ncc(-c3nnc(C(F)F)o3)cc2C1=O [Example 70c, 6-{[(5-chloropyridin-3-yl)methyl](methyl)amino}-3-[5-(difluoromethyl)-1,3,4-oxadiazol-2-yl]-6,7-dihydro-5H-pyrrolo[3,4-b]pyridin-5-one]
100%	Fc1cccc(Cn2ccnc2-c2cc(-c3nnc(C(F)F)o3)ccn2)c1 [Example 71a, 4-[5-(difluoromethyl)-1,3,4-oxadiazol-2-yl]-2-{1-[(3-fluorophenyl)methyl]-1H-imidazol-2-yl}pyridine]
100%	O=C1c2cc(-c3nnc(C(F)F)o3)cnc2CN1N(Cc1ccc(F)cc1)CC1CCOCC1 [Example 71c, 3-[5-(difluoromethyl)-1,3,4-oxadiazol-2-yl]-6-{[(4-fluorophenyl)methyl][(oxan-4-yl)methyl]amino}-6,7-dihydro-5H-pyrrolo[3,4-b]pyridin-5-one]
100%	N#Cc1cccc(Cn2ccnc2-c2cc(-c3nnc(C(F)F)o3)ccn2)c1 [Example 72a, 3-[(2-{4-[5-(difluoromethyl)-1,3,4-oxadiazol-2-yl]pyridin-2-yl}-1H-imidazol-1-yl)methyl]benzonitrile]
100%	Fc1ccc(Cc2ccnn2-c2cc(-c3nnc(C(F)F)o3)ccn2)cc1 [Example 73a, 4-[5-(difluoromethyl)-1,3,4-oxadiazol-2-yl]-2-[5-[(4-fluorophenyl)methyl]-1H-pyrazol-1-yl}pyridine]
99%	Fc1cccc(Cn2c(Br)cnc2-c2cc(-c3nnc(C(F)F)o3)ccn2)c1 [Example 74a, 2-{5-bromo-1-[(3-fluorophenyl)methyl]-1H-imidazol-2-yl}-4-[5-(difluoromethyl)-1,3,4-oxadiazol-2-yl]pyridine]
